Measurements published in publication PMC10360056, “Chemical Evolution of Amphiphilic Xenopeptides for Potentiated Cas9 Ribonucleoprotein Delivery” (Journal of the American Chemical Society, 2023).

Columns and labels:
HeLa WT cells [1] = experiment: Endocytosis pathway study with inhibitors; format: cell-based; conditions: 1 mM amiloride 2 h, 75 nM RNP, 4 h, flow cytometry
Protocol: (§1) sgRNA amount in naked Cas9/sgRNA ribonucleoproteins (Cas9 RNPs) or Cas9 RNP nanocarriers were determined using a Quant-iTTM RiboGreen® RNA assay kit (Invitrogen, CA, USA). 50 μL of naked Cas9 RNPs or Cas9 RNP nanocarriers con-taining 250 ng Cas9 protein and 50 ng sgRNA were mixed with 50 μL of TE buffer and were added to the 96-well plate. The plate was incubated for 10 min. Afterwards, 100 μL of Ribogreen solution (diluted 1:100 in TE buffer) was added to each well.
(§2) The plate was incubated for another 5 min. Ribogreen fluorescence intensity was detected using a microplate reader (Spectra-fluor Plus, Tecan, Männedorf, Switzerland) with excitation and emission wavelength of 485 and 528 nm, respectively. […]
(§3) Cells were harvested and resuspended in 600 μL of FACS buffer (PBS buffer containing 10 % FBS). […] The DAPI signal and BFP fluorescence were detected with 405 nm excitation and 450 nm emission. The eGFP and ATTO488 fluorescence was assayed with 488 nm excitation and 530 nm emission. The ATTO647N fluorescence was assayed with 640 nm excitation and 670 nm emission. Ten thousand of isolated live cells were counted and evaluated. The data were analyzed using FlowJo 7.6.5 by FlowJo, LLC (Becton, Dickinson and Company, USA).
(§4) Cell viability was determined using an MTT assay. […]
(§5) Cellular uptake of Cas9 RNP nanocarriers was evaluated by flow cytometry and confocal laser scanning microscopy (CLSM). […]

HeLa WT cells [2] = experiment: Cellular uptake of Cas9 RNP nanocarriers (flow cytometry); format: cell-based; conditions: 75 nM RNP, 20 % ATTO488-sgRNA, 4 h, flow cytometry MFI
Protocol: as §1, §2, §3, §4, §5

[3] = Dilution stability of Cas9 RNP nanocarriers (DLS); format: physicochemical; conditions: prepared at 375 nM RNP, diluted with HBG, 0.1 nM RNP
Protocol: LogD7.4 determination of xenopeptides
Octanol-water partition coefficient D at pH 7.4 (logD7.4) was determined as previously reported with slight modification.5
Scheme S3 illustrates the logD7.4 determination procedures of all xenopeptides in this study. Briefly, 10 μL of 10 mg/mL xenopeptides in water were diluted with 90 μL HEPES buffer (20 mM, pH 7.4) in 1.5 mL reaction tubes. 100 μL n-octanol were then added. The tubes were shaken at 1400 rpm for 24 h. Afterwards, the tubes were centrifuged followed by storage at 4 °C for 1 h to separate n-octanol and water phases. 70 μL of each phase were injected for HPLC analysis. The extinction at 280 nm was monitored and the peak area (A) of the xenopeptides was calculated. LogD7.4 was calculated as log(Aoctanol / Awater).
All experiments were performed in triplicate.
Preparation of Cas9 RNP and Cas9 RNP/ssDNA nanocarriers […]
The hydrodynamic size, PDI and zeta potential of Cas9 RNP nanocarriers were measured by DLS using a Zetasizer Nano ZS (Malvern Instruments, UK). […] The hydrodynamic size of Cas9 RNP nanocarriers containing 1.25 μg Cas9 protein and 0.25 μg sgRNA (Cas9/sgRNA, 1:1 molar ratio) in 100 μL HBG was measured.
Afterwards, 700 μL HEPES buffer (20 mM, pH 7.4) were added to each sample and the soluti on was mixed for the zeta potential measurement. […] The size and zeta potential of diluted samples were measured as described above. […]

## CCCCC/C=C\C/C=C\CCCCCCCC(=O)NCCCC[C@H](NC(=O)CCCCCCC/C=C\C/C=C\CCCCC)C(=O)NCCCC[C@H](NC(=O)c1cc2ccccc2cc1C(=O)NCCNCCNCCNCCNC(=O)[C@H](Cc1ccc(O)cc1)NC(=O)[C@H](Cc1ccc(O)cc1)NC(=O)[C@H](Cc1ccc(O)cc1)NC(=O)[C@@H](N)CCCCN=[N+]=[N-])C(=O)NCCNCCNCCNCCNC(=O)c1cc2ccccc2cc1C(=O)N[C@@H](Cc1ccc(O)cc1)C(=O)N[C@@H](Cc1ccc(O)cc1)C(=O)N[C@@H](Cc1ccc(O)cc1)C(=O)O [Ntp1-LinA]
HeLa WT cells [1]
  Cas9 RNP uptake after pretreatment with amiloride (macropinocytosis): blocked
HeLa WT cells [2]
  enhanced sgRNA uptake compared to the Stp-based analogue: 7.3 fold
[3]
  nanocarrier size detectability upon dilution: still detectable
